Assay results reported in US5763435A, “Sulfate conjugates of ursodeoxycholic acid, and their beneficial use in inflammatory disorders” (priority 1995, dated 1998).

Test system: Principal Bile Acids in Colon
Experiment: Bile acid composition of colon after oral administration (GC-MS)
Assay type: in vivo, Sprague-Dawley rats
Settings: for Chenodeoxycholic acid mass in colon / Cholic acid mass in colon / Cholic acid percent of colonic bile acids / Deoxycholic acid mass in colon / Deoxycholic acid percent of colonic bile acids / Lithocholic acid mass in colon / Lithocholic acid percent of colonic bile acids / Total bile acid mass in colon / UDCA mass in colon / UDCA percent of colonic bile acids / Δ^22-UDCA mass in colon / Δ^22-UDCA percent of colonic bile acids / Δ^22-β-Muricholic acid mass in colon / Δ^22-ω-Muricholic acid mass in colon / α-Muricholic acid mass in colon / β-Muricholic acid mass in colon / ω-Muricholic acid mass in colon: oral gavage 250 mg/day, 4 days, mean ± SEM; for Change in colonic deoxycholic / lithocholic acid (in words): oral, vs control
Protocol: Male Sprague-Dawley rats (Harlan Sprague-Dawley, Inc., Indianapolis, Ind.), weighing 210-290 g, were maintained on a 12-hour light-dark cycle and fed standard laboratory chow ad libitum for 3 days. The animals were then transferred to metabolic cages in which they were housed individually and fed the same diet. UDCA, UDCA 3-sulfate, UDCA 7-sulfate, and UDCA 3,7-disulfate were administered by gavage at a dose of 250 mg/day for 4 consecutive days. Each group comprised 3-6 rats. Body weights of the animals were measured each day. On day 5, the animals were killed by exsanguination under ether anesthesia. Plasma was collected and frozen at -20° C. The liver was removed, rinsed in normal saline, and flash-frozen in liquid nitrogen. Urine and feces were collected every 24 hours and frozen at -20° C. All animals received humane care in compliance with the "Guide for the Care and Use of Laboratory Animals" prepared by the National Academy of Sciences (National Institutes of Health publication no. 86-23, revised in 1985).
Intestinal contents were weighed and dissected into small pieces. In each group, feces (100 mg) from all animals were pooled on day 4 of the study and then ground into a fine paste. All samples were sonicated and sequentially refluxed in 80% methanol for 2 hours and chloroform/methanol (1:1) for 1 hour. Samples were taken to dryness, and the dried extracts were resuspended in 80% methanol (20 mL). Fractions of the methanolic extract (1/40 of intestinal contents and 1/20 of feces samples) were removed and the internal standard nordeoxycholic acid (10 μg) was added. This extract was diluted with 0.01 mol/L acetic acid (20 mL) and passed first through a column of Lipidex 1000 (bed size, 4×1 cm; Packard Instrument Co., Groningen, The Netherlands) and then through a Bond-Elut C18, cartridge (Analytichem, Harbor City, Calif.). Bile acids were recovered by elution of the Lipidex 1000 column and the Bond-Elut cartridge with methanol (20 mL and 5 mL, respectively), and the combined extracts were taken to dryness. Unconjugated bile acids were isolated and separated from neutral sterol and conjugated bile acids by lipophilic anion exchange chromatography on diethylaminohydroxypropyl Sephadex LH-20 (Lipidex-DEAP; Package Instrument Co.). Recovery of unconjugated bile acids was achieved by elution with 0.1 mol/L acetic acid in 72% ethanol (7 mL) followed by evaporation of the solvents. Total conjugated bile acids were recovered with 9 mL of 0.3 mol/L acetic acid in 72% ethanol, pH 9.6. Salts were removed by passage through a Bond-Elut C18 cartridge after addition of nordeoxycholic acid (10 μg), and conjugated bile acids were recovered by elution with 5 mL of methanol. Solvolysis was performed in a mixture of methanol (1 mL), distilled tetrahydrofuran (9 mL), and 1 mol/L trifluoracetic acid in dioxane (0.1 mL) and heated to 45° C for 2 hours. After solvolysis, unconjugated bile acids were isolated by chromatography on Lipidex-DEAP. Methyl ester derivatives were prepared by dissolving the sample in methanol (0.3 mL) and reacting with 2.7 mL of freshly distilled ethereal diazomethane. After evaporation of the reagents, the methyl ester derivatives were converted to trimethylsilyl ethers by the addition of […] of Tri-Sil reagent (Pierce Chemicals, Rockford, Ill.). A column of Lipidex 5000 (Packard Instrument Co.) was used to remove derivatizing reagents and to purify the sample.
GC-MS analysis was performed using a Finnigan 4635 mass spectrometer (Finnigan Inc., San Jose, Calif.) that housed an identical gas chromatography column operated under the same conditions. Electron ionization (70 eV) mass spectra were recorded over the mass range of 50-800 daltons by repetitive scanning of the eluting components. […]

Structure (SMILES) | Chenodeoxycholic acid mass in colon | Cholic acid mass in colon | Cholic acid percent of colonic bile acids | Deoxycholic acid mass in colon | Deoxycholic acid percent of colonic bile acids | Lithocholic acid mass in colon | Lithocholic acid percent of colonic bile acids | Total bile acid mass in colon | UDCA mass in colon | UDCA percent of colonic bile acids | Δ^22-UDCA mass in colon | Δ^22-UDCA percent of colonic bile acids | Δ^22-β-Muricholic acid mass in colon | Δ^22-ω-Muricholic acid mass in colon | α-Muricholic acid mass in colon | β-Muricholic acid mass in colon | ω-Muricholic acid mass in colon | Change in colonic deoxycholic / lithocholic acid (in words)
C[C@H](CCC(=O)O)[C@H]1CC[C@H]2[C@@H]3[C@@H](O)C[C@@H]4C[C@H](OS(=O)(=O)O)CC[C@]4(C)[C@H]3CC[C@]12C [UDCA-3S, ursodeoxycholic acid 3-sulfate] | 0.06 mg | 0.44 mg | 13.8% | .58 mg | 17.4% | 0.61 mg | 18.4% | 4.07 mg | 0.05 mg | 1.5 ± 0.2% | 0.01 mg | 0.2 ± 0.1% | 0.01 mg | 0.44 mg | 0.02 mg | 0.20 mg | 1.67 mg | 
C[C@H](CCC(=O)O)[C@H]1CC[C@H]2[C@@H]3[C@@H](OS(=O)(=O)O)C[C@@H]4C[C@H](OS(=O)(=O)O)CC[C@]4(C)[C@H]3CC[C@]12C [UDCA-DS, ursodeoxycholic acid 3,7-disulfate] | 0.07 mg | 0.23 mg | 26.3% | 0.31 mg | 27.2% | 0.02 mg | 1.8% | 1.22 mg | 0.20 mg | 14.7% |  | 0% | 0.01 mg | 0.06 mg | 0.03 mg | 0.06 mg | 0.24 mg | substantial reductions in the mass and proportion of both deoxycholic acid and lithocholic acid
C[C@H](CCC(=O)O)[C@H]1CC[C@H]2[C@@H]3[C@@H](OS(=O)(=O)O)C[C@@H]4C[C@H](O)CC[C@]4(C)[C@H]3CC[C@]12C [UDCA-7S, ursodeoxycholic acid 7-sulfate] | 0.06 mg | 0.09 mg | 2.5% | 0.36 mg | 11.4% | 0.04 mg | 1.3% | 2.98 mg | 1.28 mg | 44.0% |  | 0% | 0.03 mg | 0.15 mg | 0.03 mg | 0.06 mg | 0.88 mg | substantial reductions in the mass and proportion of both deoxycholic acid and lithocholic acid
C[C@H](CCC(=O)O)[C@H]1CC[C@H]2[C@@H]3[C@@H](O)C[C@@H]4C[C@H](O)CC[C@]4(C)[C@H]3CC[C@]12C [UDCA, 3 alpha, 7 beta-dihydroxy-5 beta-cholan-24oic acid, reference compound] | 0.05 mg | 0.24 mg | 8.9% | 0.31 mg | 10.4% | 0.97 mg | 32.0% | 3.04 mg | 0.31 mg | 8.3% | 0.02 mg | 0.4% |  | 0.19 mg | 0.01 mg | 0.13 mg | 0.83 mg | decrease (P=0.003) in the proportion of deoxycholic acid
